Measured values: patent publication US20230321055A1, “PREVENTIVE TREATMENT OF MIGRAINE” (priority 2022, published 2023)

System: participants with chronic migraine
Assay: Phase 3 randomized, double-blind, placebo-controlled study of atogepant for prevention of chronic migraine: eDiary efficacy (migraine, headache and acute medication use days, responder rates)
Type: in vivo, human
Procedure: A phase 3, multicenter, randomized, double-blind, placebo-controlled, parallel-group study was carried out to evaluate the efficacy, safety, and tolerability of atogepant for the prevention of chronic migraine. A total of 778 participants from 133 sites in North America, Europe, and East Asia were randomized to one of three treatment arms (placebo, Atogepant 30 mg BID, and Atogepant 60 mg QD) in a 1:1:1 ratio.
This study comprised a 4-week screening and baseline period, a 12-week double blind treatment period, and a follow-up period of 4 additional weeks. The total study duration was 20 weeks. Participant disposition information and other relevant participant screening information may also be found in FIG. 19.
The primary end point was the change from baseline in the mean number of migraine days per month across the 12 week treatment period.
Secondary endpoints included change from baseline in mean monthly headache days across the 12 week treatment period; change from baseline in mean monthly acute medication use days across the 12-week treatment period; at least a 50% reduction in mean monthly migraine days across the 12-week treatment period; change from baseline in MSQ v2.1 Role Function-Restrictive domain score at week 12; change from baseline in mean AIM-D monthly functioning and activity impairment score across the 12-week treatment period; and change from baseline in HIT-6 total score at week 12.
Inclusion criteria included at least a 1-year history of chronic migraine consistent with diagnosis according to the International Classification of Headache Disorders, 3rd Edition (ICHD-3) and age of the participant at the time of migraine onset <50 years. Inclusion criteria further included confirmation of headache / migraine headache day frequency as follows: history of, on average, ≥15 headache days per month in the 3 months prior to Visit 1 in the opinion of the investigator AND >=15 headache days during the 4-week screening/baseline period per the electronic diary (eDiary) AND >=8 days during the 4-week screening/baseline period that qualify as being a migraine day per the eDiary. Participants were also required to be using a medically acceptable and effective method of birth control during the course of the entire study.
Exclusion criteria included a history of migraine, accompanied by diplopia or decreased level of consciousness, or retinal migraine; a current diagnosis of new persistent daily headache, trigeminal autonomic cephalgia (e.g., cluster headache), or painful cranial neuropathy; history of an inadequate response to >4 medications (2 of which have different mechanisms of action) prescribed for the prevention of migraine; and woman who is pregnant, planning to become pregnant during the course of the study, or currently lactating.
• All Screened Participants includes those screened participants who signed informed consent form. • The Intent-to-Treat Population includes all randomized participants. […] Treatment groups assigned as randomized.
A Subset of patients (11%) was allowed to use one concomitant migraine preventive medication (e.g., amitriptyline, propranolol, topiramate). Patients were allowed to use acute headache treatments (i.e., triptans, ergotamine derivatives, NSAIDs, acetaminophen, and opioids) as needed. Patients with acute medication overuse and medication overuse headache were also enrolled. The use of a concomitant medication that acts on the CGRP pathway was not permitted for either acute or preventive treatment of migraine. The study excluded patients with myocardial infarction, stroke, or transient ischemic attacks within six months prior to screening.
Outcomes for this analysis included change from baseline in mean MMDs during 4-week intervals, change in weekly migraine days during weeks 1-4, and the proportion of participants with a migraine on each day during the first 7 days of treatment. […] Baseline MMDs ranged from 18.6 to 19.2 across treatment groups. […]

[1] = 60 mg QD, Off-Treatment Hypothetical Estimand population
[2] = 60 mg QD, acute medication over-users
[3] = 60 mg QD, mITT, listed as atogepant
[4] = range over 30 mg twice daily and 60 mg once daily

SMILES: C[C@@H]1[C@H](c2c(F)ccc(F)c2F)C[C@H](NC(=O)c2cnc3c(c2)C[C@@]2(C3)C(=O)Nc3ncccc32)C(=O)N1CC(F)(F)F [Atogepant, (S)—N—((3S,5S,6R)-6-methyl-2-oxo-1-(2,2,2-trifluoroethyl)-5-(2,3,6-trifluorophenyl)piperidin-3-yl)-2′-oxo-1′,2′,5,7-tetrahydrospiro[cyclopenta[b]pyridine-6,3′-pyrrolo[2,3-b]pyridine]-3-carboxamide]
- participants with ≥50% reduction in 3-month average of MMDs (60 mg QD, Europe subpopulation): 46.7%
- ≥50% reduction in 3-month average of MMDs, OR vs placebo (60 mg QD, Europe subpopulation): 1.84
- LS mean change in MMDs (60 mg QD, Europe subpopulation of OTHE population (n=90)): −8.00
- decrease of monthly migraine days across the 12 weeks (60 mg QD, OTHE population): 6.75 days
- >=50% reduction in 3-month average of monthly migraine days, Odds ratio Atogepant vs. Placebo [1]: 1.90
- Change from baseline in mean monthly acute medication use days across the 12-week treatment period, LS Mean [1]: -6.19 days
- Change from baseline in mean monthly acute medication use days across the 12-week treatment period, LSMD Atogepant vs. Placebo [1]: -2.09 days
- Change from baseline in mean monthly headache days across the 12-week treatment period, LS Mean [1]: -6.90 days
- Change from baseline in mean monthly headache days across the 12-week treatment period, LSMD Atogepant vs. Placebo [1]: -1.72 days
- Change from baseline in mean monthly migraine days across the 12-week treatment period, LS Mean [1]: -6.75 days
- Change from baseline in mean monthly migraine days across the 12-week treatment period, LSMD Atogepant vs. Placebo [1]: -1.66 days
- >=50% reduction in 3-month average of monthly migraine days, Responders (60 mg QD, Off-Treatment Hypothetical Estimand population (N = 257)): 103 (40.1) n (%)
- LSM change from baseline in mean monthly acute medication use days [2]: −8.1
- mean monthly acute medication use days, LSM difference vs placebo [2]: −2.6
- participants with ≥50% reduction in mean MMDs across the 12-week treatment period (60 mg QD, acute medication overuse participants): 41.8%
- >=50% reduction in 3-month average of monthly migraine days, Odds ratio Atogepant vs. Placebo (60 mg QD, mITT): 2.04
- Change from baseline in mean monthly acute medication use days across the 12-week treatment period, LS Mean (60 mg QD, mITT): -6.23 days
- Change from baseline in mean monthly acute medication use days across the 12-week treatment period, LSMD Atogepant vs. Placebo (60 mg QD, mITT): -2.13 days
- Change from baseline in mean monthly headache days across the 12-week treatment period, LS Mean (60 mg QD, mITT): -7.00 days
- Change from baseline in mean monthly headache days across the 12-week treatment period, LSMD Atogepant vs. Placebo (60 mg QD, mITT): -1.87 days
- Change from baseline in mean monthly migraine days across the 12-week treatment period, LS Mean (60 mg QD, mITT): -6.88 days
- Change from baseline in mean monthly migraine days across the 12-week treatment period, LSMD Atogepant vs. Placebo (60 mg QD, mITT): -1.82 days
- decrease of monthly migraine days across the 12 weeks (60 mg QD, mITT): 6.88 days
- participants with ≥30% reduction in mean MMDs across 12 weeks (60 mg QD, mITT): 59.0%
- participants with ≥50% reduction in mean MMDs across 12 weeks (60 mg QD, mITT): 41.0%
- participants with ≥75% reduction in mean MMDs across 12 weeks (60 mg QD, mITT): 18.8%
- Change from baseline in mean monthly migraine days across the 12-week treatment period, LS Mean [3]: -6.9 days
- Change from baseline in mean monthly migraine days across the 12-week treatment period, LSMD Atogepant vs. Placebo [3]: -1.8 days
- LSM change from baseline in mean MMDs across 12 weeks (60 mg QD, participants with acute medication overuse at baseline): −7.5
- mean change from baseline in MMDs (60 mg QD, weeks 1-4 of treatment): -6.2 days
- participants with <30% reduction in mean MMDs in month 1 who experienced ≥30% reduction in either month 2 or 3 (60 mg once daily): 45/108
- participants with <30% reduction in mean MMDs in month 1 who experienced ≥30% reduction in month 2 (60 mg once daily): 31/113
- participants with <50% reduction in mean MMDs in month 1 who experienced ≥50% reduction in either month 2 or 3 (60 mg once daily): 38/139
- participants with <50% reduction in mean MMDs in month 1 who experienced ≥50% reduction in month 2 (60 mg once daily): 28/146
- participants without ≥30% reduction in mean MMDs in months 1 or 2 who experienced a ≥30% response by the end of the trial (60 mg once daily): 17.1%
- participants without ≥50% reduction in mean MMDs in months 1 or 2 who experienced a ≥50% response by the end of the trial (60 mg once daily): 8.2%
- sustained response among participants with ≥75% response in month 1 (60 mg once daily, mITT): 52.5%
- sustained response of ≥30% in months 2 and 3 among participants with ≥30% response in month 1 (60 mg once daily, mITT): 81.6%
- sustained response of ≥50% in months 2 and 3 among participants with ≥50% response in month 1 (60 mg once daily, mITT): 74.2%
- likelihood of having a migraine vs placebo (first full day after treatment initiation, atogepant-treated participants, P≤0.03): significantly less likely
- participants with <30% reduction in mean MMDs in month 1 who experienced ≥30% reduction in either month 2 or 3 [4]: 41.7%-52.1%
- participants with <30% reduction in mean MMDs in month 1 who experienced ≥30% reduction in month 2 [4]: 27.4%-36.4%
- participants with <50% reduction in mean MMDs in month 1 who experienced ≥50% reduction in either month 2 or 3 [4]: 27.3%-39.4%
- participants with <50% reduction in mean MMDs in month 1 who experienced ≥50% reduction in month 2 [4]: 19.2%-23.5%
